{"source": "paper PMC4057101", "about": "(Science (New York, N.Y.), 2013)", "format_in_all_cases": "biochemical", "key": {"acetate kinase (AckA)": {"target": "acetate kinase (AckA) (Escherichia coli, UniProt P0A6A3)", "sequence (P0A6A3 whole entry)": "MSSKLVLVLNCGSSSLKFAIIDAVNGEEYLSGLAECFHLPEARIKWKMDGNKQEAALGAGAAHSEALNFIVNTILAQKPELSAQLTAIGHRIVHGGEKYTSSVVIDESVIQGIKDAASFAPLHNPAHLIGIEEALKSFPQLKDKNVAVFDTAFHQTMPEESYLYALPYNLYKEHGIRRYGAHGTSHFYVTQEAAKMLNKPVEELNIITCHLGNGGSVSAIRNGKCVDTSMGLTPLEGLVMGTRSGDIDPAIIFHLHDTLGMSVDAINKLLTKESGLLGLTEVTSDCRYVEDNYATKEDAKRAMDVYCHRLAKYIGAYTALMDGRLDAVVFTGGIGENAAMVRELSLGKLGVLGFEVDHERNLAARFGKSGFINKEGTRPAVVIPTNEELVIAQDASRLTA", "settings": "ATP"}, "PhaB": {"target": "PhaB (Cupriavidus necator, UniProt P14697)", "sequence (P14697 whole entry)": "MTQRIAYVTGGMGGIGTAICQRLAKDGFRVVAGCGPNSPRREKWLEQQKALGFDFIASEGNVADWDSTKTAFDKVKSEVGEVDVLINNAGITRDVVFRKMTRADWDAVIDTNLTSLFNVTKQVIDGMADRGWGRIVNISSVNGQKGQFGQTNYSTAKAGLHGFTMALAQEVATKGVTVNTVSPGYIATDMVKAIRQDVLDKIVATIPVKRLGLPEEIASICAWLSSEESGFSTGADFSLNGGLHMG", "assay": "coupled reduction with NphT7", "settings": "substrate formed in situ by NphT7"}, "[1]": {"target": "acetyl-CoA carboxylase (ACCase), AccABCD (Escherichia coli, UniProt P0A9Q5+P0ABD5)", "sequence (P0A9Q5 whole entry)": "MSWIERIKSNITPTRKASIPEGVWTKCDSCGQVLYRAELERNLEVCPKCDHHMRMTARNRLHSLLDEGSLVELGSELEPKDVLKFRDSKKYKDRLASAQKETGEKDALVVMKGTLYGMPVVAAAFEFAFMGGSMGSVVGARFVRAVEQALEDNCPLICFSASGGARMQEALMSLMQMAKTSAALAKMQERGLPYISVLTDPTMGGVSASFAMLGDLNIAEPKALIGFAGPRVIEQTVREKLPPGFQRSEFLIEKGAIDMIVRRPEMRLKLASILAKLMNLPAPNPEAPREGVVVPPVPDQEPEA", "sequence (P0ABD5 2-319)": "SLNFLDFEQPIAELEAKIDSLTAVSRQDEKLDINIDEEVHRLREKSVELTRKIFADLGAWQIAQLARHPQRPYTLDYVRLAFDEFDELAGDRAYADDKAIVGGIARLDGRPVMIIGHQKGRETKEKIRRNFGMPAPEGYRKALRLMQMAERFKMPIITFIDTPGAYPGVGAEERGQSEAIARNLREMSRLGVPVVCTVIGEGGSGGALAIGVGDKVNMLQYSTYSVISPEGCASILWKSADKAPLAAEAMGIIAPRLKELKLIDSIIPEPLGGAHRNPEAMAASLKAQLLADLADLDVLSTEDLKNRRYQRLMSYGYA", "assay": "one-pot carboxylation", "settings": "formed in situ from fluoroacetate by AckA-Pta; 500 μM CoA"}, "DEBSMod6+TE": {"target": "DEBSMod6+TE (Saccharopolyspora erythraea, UniProt Q03133)", "sequence (Q03133 1468-3172)": "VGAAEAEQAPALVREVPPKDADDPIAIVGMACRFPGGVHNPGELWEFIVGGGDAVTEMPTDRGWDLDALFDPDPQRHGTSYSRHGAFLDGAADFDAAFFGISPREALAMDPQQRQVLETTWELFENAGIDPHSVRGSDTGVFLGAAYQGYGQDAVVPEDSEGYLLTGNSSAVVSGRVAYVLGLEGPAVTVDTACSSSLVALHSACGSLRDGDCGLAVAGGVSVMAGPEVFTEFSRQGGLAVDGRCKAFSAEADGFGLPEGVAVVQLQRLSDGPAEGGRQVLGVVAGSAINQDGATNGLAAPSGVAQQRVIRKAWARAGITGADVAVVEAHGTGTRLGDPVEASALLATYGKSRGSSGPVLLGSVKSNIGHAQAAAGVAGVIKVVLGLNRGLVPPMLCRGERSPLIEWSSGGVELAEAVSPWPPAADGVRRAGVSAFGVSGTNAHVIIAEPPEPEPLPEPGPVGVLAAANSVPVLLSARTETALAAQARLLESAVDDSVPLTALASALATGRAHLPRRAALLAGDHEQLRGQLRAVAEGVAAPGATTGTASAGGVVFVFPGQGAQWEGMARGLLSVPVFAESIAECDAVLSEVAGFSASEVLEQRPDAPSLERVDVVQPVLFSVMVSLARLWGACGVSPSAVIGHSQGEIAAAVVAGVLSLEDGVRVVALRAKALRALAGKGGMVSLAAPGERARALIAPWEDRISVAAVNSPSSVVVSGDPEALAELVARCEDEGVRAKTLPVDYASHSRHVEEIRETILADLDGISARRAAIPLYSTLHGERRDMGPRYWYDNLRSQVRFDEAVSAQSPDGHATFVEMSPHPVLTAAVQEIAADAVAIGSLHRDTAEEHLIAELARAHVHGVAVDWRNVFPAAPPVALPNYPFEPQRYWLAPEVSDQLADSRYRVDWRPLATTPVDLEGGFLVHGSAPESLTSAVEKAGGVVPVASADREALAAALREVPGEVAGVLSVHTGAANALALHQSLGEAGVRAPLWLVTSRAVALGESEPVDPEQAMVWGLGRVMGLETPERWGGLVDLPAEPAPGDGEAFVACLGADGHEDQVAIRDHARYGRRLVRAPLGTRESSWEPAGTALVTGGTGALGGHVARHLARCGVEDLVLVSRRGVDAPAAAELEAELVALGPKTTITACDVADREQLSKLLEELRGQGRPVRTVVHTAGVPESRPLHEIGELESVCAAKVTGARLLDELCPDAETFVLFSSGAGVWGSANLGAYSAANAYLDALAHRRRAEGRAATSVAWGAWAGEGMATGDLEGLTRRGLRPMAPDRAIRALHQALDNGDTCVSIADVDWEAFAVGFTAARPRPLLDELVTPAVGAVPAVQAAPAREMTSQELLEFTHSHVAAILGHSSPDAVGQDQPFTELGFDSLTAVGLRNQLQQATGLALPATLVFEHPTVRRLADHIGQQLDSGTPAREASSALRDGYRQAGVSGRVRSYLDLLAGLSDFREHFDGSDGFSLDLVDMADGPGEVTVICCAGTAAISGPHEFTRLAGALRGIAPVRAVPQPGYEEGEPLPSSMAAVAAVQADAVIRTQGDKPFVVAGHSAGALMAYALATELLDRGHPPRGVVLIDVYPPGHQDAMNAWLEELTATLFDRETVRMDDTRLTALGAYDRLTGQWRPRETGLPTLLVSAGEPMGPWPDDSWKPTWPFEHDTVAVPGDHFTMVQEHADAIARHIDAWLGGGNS", "assay": "LC-MS of triketide lactone formation", "settings": "NDK-SNAC, MatB and ATP regeneration"}, "NphT7": {"target": "T1, NphT7 (Streptomyces sp. CL190, UniProt D7URV0)", "T1 sequence (D7URV0 1-329)": "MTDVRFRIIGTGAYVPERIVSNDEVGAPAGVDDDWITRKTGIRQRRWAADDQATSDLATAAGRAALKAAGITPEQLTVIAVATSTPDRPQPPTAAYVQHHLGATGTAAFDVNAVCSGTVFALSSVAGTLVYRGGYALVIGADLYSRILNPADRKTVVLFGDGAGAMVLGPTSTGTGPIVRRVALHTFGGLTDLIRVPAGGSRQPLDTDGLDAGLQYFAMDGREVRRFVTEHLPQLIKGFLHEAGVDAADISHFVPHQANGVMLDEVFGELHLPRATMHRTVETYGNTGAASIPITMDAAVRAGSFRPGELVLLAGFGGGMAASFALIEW", "assay": "steady-state kinetics, coupled assay with PhaB", "settings": "acetyl-CoA starter"}}}
{"smiles": "CC(=O)O", "note": "[acetate]", "values": [{"measurement": "KM", "setting": "acetate kinase (AckA)", "result": "rapidly produce both acetyl- and fluoroacetyl-CoA in nearly quantitative yield"}]}
{"smiles": "CC(=O)C(F)C(=O)SCCNC(=O)CCNC(=O)[C@H](O)C(C)(C)COP(=O)(O)OP(=O)(O)OC[C@H]1O[C@@H](n2cnc3c(N)ncnc32)[C@H](O)[C@@H]1OP(=O)(O)O", "note": "(some centres unmarked) [acetofluoroacetyl-CoA]", "values": [{"measurement": "coupled reduction with NphT7; 1H and 19F NMR of product", "setting": "PhaB", "result": "PhaB is capable of efficiently reducing the acetofluoroacetyl-CoA substrate"}]}
{"smiles": "O=C(O)CF", "note": "[fluoroacetate]", "values": [{"measurement": "KM", "setting": "acetate kinase (AckA)", "result": "Analysis of the kinetic parameters for these enzymes with respect to fluorinated substrates"}]}
{"smiles": "CC(C)(COP(=O)(O)OP(=O)(O)OC[C@H]1O[C@@H](n2cnc3c(N)ncnc32)[C@H](O)[C@@H]1OP(=O)(O)O)[C@@H](O)C(=O)NCCC(=O)NCCSC(=O)CF", "note": "[fluoroacetyl-CoA]", "values": [{"measurement": "one-pot carboxylation", "setting": "[1]", "result": "carry out the carboxylation of fluoroacetate in a one-pot reaction to generate the fluoromalonyl-CoA"}]}
{"smiles": "CC(C)(COP(=O)(O)OP(=O)(O)OC[C@H]1O[C@@H](n2cnc3c(N)ncnc32)[C@H](O)[C@@H]1OP(=O)(O)O)[C@@H](O)C(=O)NCCC(=O)NCCSC(=O)C(F)C(=O)O", "note": "(some centres unmarked) [fluoromalonyl-CoA]", "values": [{"measurement": "LC-MS of triketide lactone formation", "setting": "DEBSMod6+TE", "result": "DEBSMod6+TE is also able to accept the fluorinated monomer in chain extension catalysis"}, {"measurement": "KM", "setting": "NphT7", "result": "formation of acetofluoroacetyl-CoA using an acetyl-CoA starter and fluoromalonyl-CoA extender"}]}
{"smiles": "CC(C)(COP(=O)(O)OP(=O)(O)OC[C@H]1O[C@@H](n2cnc3c(N)ncnc32)[C@H](O)[C@@H]1OP(=O)(O)O)[C@@H](O)C(=O)NCCC(=O)NCCSC(=O)CC(=O)O", "note": "[malonyl-CoA]", "values": [{"measurement": "KM", "setting": "NphT7", "result": "Steady-state kinetic parameters for NphT7-catalyzed C–C bond formation"}]}
{"smiles": "CC(C(=O)O)C(=O)SCCNC(=O)CCNC(=O)[C@H](O)C(C)(C)COP(=O)(O)OP(=O)(O)OC[C@H]1O[C@@H](n2cnc3c(N)ncnc32)[C@H](O)[C@@H]1OP(=O)(O)O", "note": "(some centres unmarked) [methylmalonyl-CoA]", "values": [{"measurement": "LC-MS of triketide lactone formation", "setting": "DEBSMod6+TE", "result": "single round of chain elongation with its native methylmalonyl-CoA extender unit"}]}
